Key:
HDAC4 [1] = molecular target: T1, HDAC4 (Mus musculus, UniProt Q6NZM9); test: in vivo siRNA knockdown in mouse tibialis muscle, denervation, RT-PCR of Dach2/MGN/nAChR; parameters: HDAC4 siRNA results in more than 80% reduction in HDAC4; from tissue; host or cells: mouse tibialis anterior muscle, in vivo; settings: siRNA electroporated into tibialis, denervated 3 days
Procedure: (§1) Mouse Procedures. Mice were anaesthetized with a Ketamine/Xylazine mixture (25 mg/ml Ketamine, 1 mg/ml Xylazine in 0.9% NaCl; 100 ul used per mouse. Hair was removed from area surrounding muscle. For denervation, sciatic nerve was exposed and ˜[…] piece of nerve was cut and removed. Incision was sutured and mice were allowed to recover. For overexpression electroporation analysis, 25 ug GFP, HDAC4-GFP, or HDAC4-3SA-GFP was used for injection. For siRNA experiments, 500 pmol siRNA oligo was used for injection. DNA or siRNA were directly injected into TA muscles using cemented MicroSyringe (VWR). ECM 830 electroporator (BTX) was used for all electroporations. Tweezertrodes (Model 520) were coated with transmission gel and were placed outside the skin around the muscle belly and pulsed 5 times at 50V, 60 ms duration, with 200 ms interval time. Mice were allowed to recover in their cages. Stealth siRNA duplexed oligos are from Invitrogen. Sequences are; mouse HDAC4: 5′ […] 3′ (SEQ ID NO:3), mouse HDAC5: 5′ […] 3′ (SEQ ID NO:4).
RNA analysis. For RNA analysis, TA muscles were dounce homogenized in 1 ml Tri reagent (MRC) and incubated at 4° C. overnight. 200 ul chloroform was added, and after vigorous shaking, samples were centrifuged at 12000 rpm for 10 min. Top aqueous layer was added to 500 ul isopropanol, mixed well, and centrifuged at 12000 rpm for 10 min. RNA pellet was washed with 70% ethanol, air-dried, and resuspended in DEPC water for RT-PCR analysis. For northern blotting, 10 ug total RNA was run on a 1% formaldehyde RNA gel. Gel was transferred onto Hybond N+ membrane and probed using radiolabeled fragments of HDAC4 or Atrogin-1 cDNA generated from Prime-it kit II (Stratagene). Blots were exposed for 2 hr at −80° C. For RT-PCR analysis, total RNA was DNase treated using DNA-free kit (Ambion), and 1 ug RNA was used for cDNA synthesis reaction using iScript cDNA Synthesis Kit (Biorad). Samples were diluted 1:50 and 5 ul cDNA was used per RT-PCR reaction. Real-time quantitative PCR was performed using iQ SYBER Green Supermix on the iCycler™ iQ Detection System (Biorad). […]

HDAC4 [2] = molecular target: T1, HDAC4; test: muscle atrophy after surgical denervation of siRNA-electroporated tibialis anterior (fiber size, atrophy genes by RT-PCR); format: in vivo; parameters: HDAC4 siRNA results in more than 80% reduction in HDAC4; from tissue; host or cells: mouse tibialis anterior muscle, in vivo
Procedure: as §1
RNA analysis. For RNA analysis, TA muscles were dounce homogenized in 1 ml Tri reagent (MRC) and incubated at 4° C. overnight. 200 ul chloroform was added, and after vigorous shaking, samples were centrifuged at 12000 rpm for 10 min. Top aqueous layer was added to 500 ul isopropanol, mixed well, and centrifuged at 12000 rpm for 10 min. RNA pellet was washed with 70% ethanol, air-dried, and resuspended in DEPC water for RT-PCR analysis. For northern blotting, 10 ug total RNA was run on a 1% formaldehyde RNA gel. Gel was transferred onto Hybond N+ membrane and probed using radiolabeled fragments of HDAC4 or Atrogin-1 cDNA generated from Prime-it kit II (Stratagene). Blots were exposed for 2 hr at −80° C. For RT-PCR analysis, total RNA was DNase treated using DNA-free kit (Ambion), and 1 ug RNA was used for cDNA synthesis reaction using iScript cDNA Synthesis Kit (Biorad). Samples were diluted 1:50 and 5 ul cDNA was used per RT-PCR reaction. Real-time quantitative PCR was performed using iQ SYBER Green Supermix on the iCycler™ iQ Detection System (Biorad). Sample volume was 20 ul per reaction. Efficiency and specificity of primers were confirmed by standard PCR and DNA electrophoresis. RT-PCR Program on iCycler™ was 95° C. 15 sec, 60° C. 30 sec, 72° C. 30 sec. All real-time PCR values were normalized to either actin or 18S rRNA. RT-PCR primer sequences are as follows: G-actin: forward 5′-[…] 3′ (SEQ ID NO:5), reverse 5′ […] 3′ (SEQ ID NO:6); 18S: forward 5′ […] 3′ (SEQ ID NO:7), reverse 5′ […] 3′ (SEQ ID NO:8); Dach2: forward 5′-[…] 3′ (SEQ ID NO:9), reverse 5′ […] 3′ (SEQ ID NO:10); nAChRα: forward 5′ CGTCTGGTGGCAAAGCT 3′ (SEQ ID NO:11), reverse 5′-CCGCTCTCCATGAAGTT 3′ (SEQ ID NO:12); MGN: forward 5′-[…] […]
To establish a role for HDAC4 in muscle atrophy, scrambled control siRNA or HDAC4-specific siRNA were electroporated into tibialis anterior (TA) followed by denervation. […] The extent of muscle atrophy was then analyzed by measuring muscle fiber size and the induction of atrophy-specific genes, MuRF1 and atrogin 1, two E3 ligases essential for muscle atrophy. […]

HDAC4 [3] = molecular target: T1, HDAC4; test: PGC-1α and myoglobin expression in tibialis anterior electroporated with HDAC4-siRNA; format: in vivo; parameters: HDAC4 siRNA results in more than 80% reduction in HDAC4; from tissue; host or cells: mouse tibialis anterior muscle, in vivo; settings: fast/glycolytic tibialis anterior muscle
Procedure: as §1
RNA analysis. For RNA analysis, TA muscles were dounce homogenized in 1 ml Tri reagent (MRC) and incubated at 4° C. overnight. 200 ul chloroform was added, and after vigorous shaking, samples were centrifuged at 12000 rpm for 10 min. […] Real-time quantitative PCR was performed using iQ SYBER Green Supermix on the iCycler™ iQ Detection System (Biorad). […]

HDAC4 [4] = molecular target: T1, HDAC4; settings: daily injection

T1 sequence (Q6NZM9 whole entry): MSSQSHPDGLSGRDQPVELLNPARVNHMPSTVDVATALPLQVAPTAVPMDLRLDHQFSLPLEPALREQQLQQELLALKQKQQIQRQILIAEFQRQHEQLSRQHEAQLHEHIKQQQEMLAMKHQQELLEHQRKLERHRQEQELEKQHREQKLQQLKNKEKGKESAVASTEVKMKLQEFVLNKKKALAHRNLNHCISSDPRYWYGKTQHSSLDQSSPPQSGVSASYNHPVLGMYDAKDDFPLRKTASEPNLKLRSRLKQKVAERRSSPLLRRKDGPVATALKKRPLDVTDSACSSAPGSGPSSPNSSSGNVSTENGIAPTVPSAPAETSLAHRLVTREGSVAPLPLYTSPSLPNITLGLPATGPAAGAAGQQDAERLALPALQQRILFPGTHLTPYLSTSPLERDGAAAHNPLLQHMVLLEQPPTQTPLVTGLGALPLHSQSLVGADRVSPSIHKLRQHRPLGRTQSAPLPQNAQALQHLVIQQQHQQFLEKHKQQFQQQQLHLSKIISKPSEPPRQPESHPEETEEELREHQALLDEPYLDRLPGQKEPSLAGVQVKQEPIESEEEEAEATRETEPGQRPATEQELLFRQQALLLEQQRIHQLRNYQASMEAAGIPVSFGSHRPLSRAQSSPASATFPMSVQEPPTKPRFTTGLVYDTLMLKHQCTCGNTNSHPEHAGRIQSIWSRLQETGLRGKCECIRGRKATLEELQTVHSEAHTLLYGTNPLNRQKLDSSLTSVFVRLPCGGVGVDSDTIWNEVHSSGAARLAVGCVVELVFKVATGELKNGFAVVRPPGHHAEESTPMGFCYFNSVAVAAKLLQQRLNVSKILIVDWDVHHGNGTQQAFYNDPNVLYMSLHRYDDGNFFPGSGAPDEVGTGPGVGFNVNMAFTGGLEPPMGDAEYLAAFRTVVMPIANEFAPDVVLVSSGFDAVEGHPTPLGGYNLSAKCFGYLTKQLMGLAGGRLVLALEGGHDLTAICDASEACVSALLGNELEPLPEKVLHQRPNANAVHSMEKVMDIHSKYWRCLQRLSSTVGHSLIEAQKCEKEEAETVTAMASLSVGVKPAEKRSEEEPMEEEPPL

Row | induction of MGN after denervation (HDAC4 [1]) | induction of nAChR after denervation (HDAC4 [1]) | repression of Dach2 that occurs during denervation (HDAC4 [1]; 7 days after electroporation) | atrogin 1 expression after denervation (HDAC4 [2]; RT-PCR) | induction of MuRF1 by denervation (HDAC4 [2]; RT-PCR) | atrophy (reduction in TA muscle size) after denervation (HDAC4 [2]; denervation for 12 days, versus control siRNA) | reduction in HDAC4 (HDAC4 [2]; siRNA electroporated into tibialis anterior) | size of individual fibers of denervated muscles (HDAC4 [2]; versus fibers that received control siRNA) | PGC-1α expression (HDAC4 [3]) | myoglobin expression (HDAC4 [3]) | level of PGC-1α (HDAC4 [4]) | Substance
1 | dramatically reduced | dramatically reduced | significantly alleviates | modestly affected | significantly inhibited | largely prevented | more than 80% | much larger | elevation | elevation |  | 5′ CACCGGAACCUGAACCACUGCAUUU 3′ (SEQ ID NO:3) [HDAC4 siRNA]
2 |  |  |  |  |  |  |  |  |  |  | increase | Trichostatin A
